These results are taken from article PMC9501232, “Novel 4-Azapregnene Derivatives as Potential Anticancer Agents: Synthesis, Antiproliferative Activity and Molecular Docking Studies” (Molecules, 2022).

What all share (type): cell-based, human
The subject of one experiment is LNCaP cells. In words: Microscopic cell morphology observation. As to conditions: 24 and 72 h of treatment. On the procedure:
In our previous work, 16E-arylidene-4-azaandrost-5-ene derivatives were synthesized, their antiproliferative effects were evaluated and further studies were performed with the most promising steroid in LNCaP cells. Due to the similarity of 16E-arylidene-4-azaandrostenes and these novel 21E-arylidene-4-azapregnene derivatives, identical studies in this cell line were performed, namely a flow cytometry assay and microscopic cell morphology observation. To assess the viability of LNCaP cells when exposed to steroid 3g, a flow cytometry assay after PI staining was performed. Cells were treated with 3g and 5-FU during 24 and 72 h, and then a microscopic cell observation was performed to assess the possible morphological alterations and cell density changes triggered by incubation with 3g and compare with controls (Figure 6).
Similar to the previous study, the analysis of cell viability was accomplished by flow cytometry after staining dead cells with propidium iodide (PI; Invitrogen, Carlsbad, USA). Succinctly, 1 mL of a cell suspension was seeded in 12-well culture plates (initial cell density of 5 × 10^4 cells/mL of LNCaP cells for 24 h assay and 2 × 10^4 cells/mL of the same cell line for 72 h assay) in a complete culture medium. […] The percentages of each region were calculated for a total of R1 + R2 + R3. […]

The subject of experiment [1] is caspase-9 activity in T47-D cells. Put plainly: Caspase-Glo 9 caspase-9 activity assay. As to conditions: 48 h, DOX 10 µM, 3g 10 and 20 µM, relative to untreated cells. The method, then: Promega Caspase-Glo 9 assay (Promega, Madison, WI, USA) was employed to evaluate the caspase-9 activity. T47-D cells were seeded in a 96 multiwell plate at a density of 4 × 10^4 cells/mL. After 48 h, cells were treated with the positive control, DOX, at 10 μM and with 10 and 20 μM of 3g, during 48 h. The assay was performed at the end of treatment, following the instructions provided by the manufacturer. Data are representative of at least two experiments (n = 4 in each).

The test system of the next experiment is T47-D cells. In words: Fluorescence microscopy, PI/Hoechst 3342 staining. As to conditions: 20 µM, 24, 48 and 72 h, vs negative and positive controls. The method, then: To access the effects of the compound 3g in T47-D cells, fluorescence microscopy assays with Hoechst 3342 and PI staining were performed. T47-D cells were seeded at 2 × 10^4 cells/mL in a 24-well culture plate containing circular coverslips of 10 mm diameter, in a complete culture medium. After 48 h, cells were incubated during 24, 48 and 72 h, with 5-FU at 20 µM, as the positive control, steroid 3g at 20 µM, and untreated cells were used as a negative control. Then, cells were incubated with 20 µL/per well of a solution of PI in PBS at 1 mg/mL for 25 min at 37 °C. The medium was removed, and the cells were fixed with formalin 4% for 15 min at room temperature. Cells were washed three times with PBS and then they were incubated with 30 µL/per coverslip of Hoechst 33,342 (1:500) for 10 min. After incubation, cells were washed three times with PBS. Coverslips were mounted on a drop of permanent mounting medium (Dako) on a microscope slide and visualized in a Zeiss Axio Imager A1 microscope with the 40 × objective. The PI/Hoechst 3342 ratio was calculated by dividing PI-positive cells by Hoechst 3342-positive cells and, then the values were normalized.

`C[C@]12CC[C@H]3[C@@H](CC=C4NC(=O)CC[C@@]43C)[C@@H]1CC[C@@H]2C(=O)/C=C/c1cccnc1` [Compound 3g, 21E-[(Pyridin-3-yl)methylidene]-4-azapregn-5-ene-3,20-dione]: the “Cell morphology and cell density” value in the experiment with LNCaP cells is “detached, forming clusters and presenting a round form”. Also, in experiment [1], the Caspase-9 activity result is given as “significant elevation in caspase-9 activity”. In addition, the “Ratio of PI/Hoechst 3342 staining” value in the experiment with T47-D cells is “higher ratio of PI/Hoechst 3342 staining”.
